Data as given in US8309730B2, “Nonsteroidal compounds useful as modulators of glucocorticoid receptor AP-1 and/or NF-kappab acitivity and use thereof” (Bristol-Myers Squibb Company, priority 2007, dated 2012).

These molecules were tested against T1, human glucocorticoid receptor (Homo sapiens, UniProt P04150) (assay: Glucocorticoid Receptor Binding Assay (I), fluorescence polarization competitor kit). Details: purified human recombinant full-length GR, Fluormone GS Red, 2 h room temperature.
T1 construct: purified human recombinant full-length glucocorticoid receptor (2 nM); purchased Invitrogen Part #2893
T1 sequence (P04150 1-777): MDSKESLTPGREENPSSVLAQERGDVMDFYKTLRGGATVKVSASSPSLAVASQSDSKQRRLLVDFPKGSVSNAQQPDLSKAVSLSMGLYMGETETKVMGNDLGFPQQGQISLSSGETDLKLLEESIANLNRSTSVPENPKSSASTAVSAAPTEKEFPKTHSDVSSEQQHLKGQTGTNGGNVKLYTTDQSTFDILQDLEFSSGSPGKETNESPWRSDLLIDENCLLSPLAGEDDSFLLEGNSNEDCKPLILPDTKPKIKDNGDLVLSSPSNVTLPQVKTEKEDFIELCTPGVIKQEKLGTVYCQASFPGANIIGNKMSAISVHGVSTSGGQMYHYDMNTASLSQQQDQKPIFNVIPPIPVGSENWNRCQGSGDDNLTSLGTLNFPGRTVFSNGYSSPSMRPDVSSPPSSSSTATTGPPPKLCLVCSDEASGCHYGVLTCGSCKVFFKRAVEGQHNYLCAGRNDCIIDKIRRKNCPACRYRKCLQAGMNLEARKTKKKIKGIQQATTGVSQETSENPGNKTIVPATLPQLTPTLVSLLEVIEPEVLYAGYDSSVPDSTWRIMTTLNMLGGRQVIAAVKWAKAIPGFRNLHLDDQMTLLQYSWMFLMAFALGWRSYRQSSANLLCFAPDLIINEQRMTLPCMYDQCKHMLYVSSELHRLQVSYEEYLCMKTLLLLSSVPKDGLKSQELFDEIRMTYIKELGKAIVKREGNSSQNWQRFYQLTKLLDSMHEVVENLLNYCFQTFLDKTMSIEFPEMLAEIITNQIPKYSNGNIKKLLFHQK
Description: Briefly, purified human recombinant full-length glucocorticoid receptor (2 nM) was mixed with fluorescently labeled glucocorticoid (1 nM Fluormone GS Red) in the presence or absence of test compound. After two hours incubation at room temperature in the dark, the fluorescence polarization (FP) of the sample was measured. […] Test compounds were analyzed in the concentration range from 8.5E-05 μM to 5 μM.

Row | Compound | Ki [nM]
1 | C[C@]12Cn3cnc(-c4ccccc4)c3C=C1CCC[C@@H]2[C@H](O)c1ccccc1 (racemic) [Example 12] | 86.3
2 | COc1ccc([C@H](O)[C@H]2CCCC3=Cc4c(-c5ccccc5)ncn4C[C@@]32C)cc1 (racemic) [Example 16] | 90.1
3 | COc1ccc([C@@H](O)[C@H]2CCCC3=Cc4c(-c5ccccc5)ncn4C[C@@]32C)cc1 (racemic) [Example 17] | 93.4
4 | C=CC[C@H](O)[C@H]1CCCC2=Cc3c(-c4ccccc4)ncn3C[C@@]21C (racemic) [Example 18] | 26.9
5 | C=CC[C@@H](O)[C@H]1CCCC2=Cc3c(-c4ccccc4)ncn3C[C@@]21C (racemic) [Example 19] | 22.3
6 | C[C@]12Cn3cnc(-c4ccccc4)c3C=C1CCC[C@@H]2[C@@H](O)Cc1ccccc1 (racemic) [Example 20] | 18.3
7 | C[C@]12Cn3cnc(-c4ccccc4)c3C=C1CCC[C@@H]2[C@@H](O)C1CCCCC1 (racemic) [Example 21] | 20.2
8 | COc1cccc([C@H](O)[C@H]2CCCC3=Cc4c(-c5ccccc5)ncn4C[C@@]32C)c1 (racemic) [Example 22] | 94.4
9 | COc1cccc([C@@H](O)[C@H]2CCCC3=Cc4c(-c5ccccc5)ncn4C[C@@]32C)c1 (racemic) [Example 23] | 57.5
10 | C[C@H](O)[C@H]1CCCC2=Cc3c(-c4ccccc4)ncn3C[C@@]21C (racemic) [Example 24] | 364
11 | C[C@@H](O)[C@H]1CCCC2=Cc3c(-c4ccccc4)ncn3C[C@@]21C (racemic) [Example 25] | 202
12 | C[C@]12Cn3cnc(-c4ccccc4)c3C=C1CCC[C@@H]2C(=O)c1ccccc1 (racemic) [Example 33] | > 1150
13 | C[C@]12Cn3cnc(-c4ccccc4)c3C=C1CCC[C@@H]2C(=O)c1csc2ccccc12 (racemic) [Example 34] | > 1150
14 | C[C@]12Cn3cnc(-c4ccccc4)c3C=C1CCC[C@@H]2[C@](C)(O)c1ccccc1 (racemic) [Example 35] | 6.4
15 | CC[C@@](O)(c1ccccc1)[C@H]1CCCC2=Cc3c(-c4ccccc4)ncn3C[C@@]21C (racemic) [Example 36] | 8.71
16 | CC[C@@](O)(c1csc2ccccc12)[C@H]1CCCC2=Cc3c(-c4ccccc4)ncn3C[C@@]21C (racemic) [Example 37] | 209
17 | C[C@]12Cn3cnc(-c4ccccc4)c3C=C1CCC[C@@H]2[C@](O)(c1csc2ccccc12)C(F)(F)F (racemic) [Example 38] | 111
18 | CC12Cn3cnc(-c4ccc(F)cc4)c3C=C1CCCC2(O)CCc1ccccc1 (racemic) [Example 102] | 19.7
19 | CC12Cn3cnc(-c4ccc(F)cc4)c3C=C1CCCC2(O)c1ccc(Cl)cc1 (racemic) [Example 103] | 216
20 | C[C@]12Cn3cnc(-c4ccccc4)c3C=C1CCC[C@@H]2[C@@H](O)c1ccccc1 (single isomer, unassigned) [Example 13] | > 1150
21 | C[C@]12Cn3cnc(-c4ccccc4)c3C=C1CCC[C@@H]2[C@@H](O)c1ccccc1 (single isomer, unassigned) [Example 14] | 65
22 | C[C@]12Cn3cnc(-c4ccccc4)c3C=C1CCC[C@@H]2[C@H](O)c1csc2ccccc12 (single isomer, unassigned) [Example 28] | 493
23 | C[C@]12Cn3cnc(-c4ccccc4)c3C=C1CCC[C@@H]2[C@@H](O)c1csc2ccccc12 (single isomer, unassigned) [Example 30] | 22.5
24 | C[C@]12Cn3cnc(-c4ccccc4)c3C=C1CCC[C@@H]2[C@](C)(O)c1csc2ccccc12 (single isomer, unassigned) [Example 32] | > 1150
25 | C[C@]12Cn3cnc(-c4ccc(F)cc4)c3C=C1CCC[C@@H]2C(=O)c1csc2ccccc12 (single isomer, unassigned) [Example 43] | > 1150
26 | C[C@]12Cn3cnc(-c4ccc(F)cc4)c3C=C1CCC[C@@H]2C(=O)c1csc2ccccc12 (single isomer, unassigned) [Example 44] | > 1150

Row | Compound | Ki [nM]
27 | C[C@]12Cn3cnc(-c4ccc(F)cc4)c3C=C1CCC[C@@H]2[C@](C)(O)c1csc2ccccc12 (single isomer, unassigned) [Example 45] | 73.2
28 | C[C@]12Cn3cnc(-c4ccc(F)cc4)c3C=C1CCC[C@@H]2[C@](C)(O)c1csc2ccccc12 (single isomer, unassigned) [Example 46] | 1.43
29 | CO[C@](C)(c1cccs1)[C@H]1CCCC2=Cc3c(-c4ccc(F)cc4)ncn3C[C@@]21C [Example 2, (5aR,6S)-1-(4-Fluorophenyl)-6-((S)-1-methoxy-1-(thiophen-2-yl)ethyl)-5a-methyl-5,5a,6,7,8,9-hexahydroimidazo[1,5-b]isoquinoline] | 69.8
30 | C[C@]12Cn3cnc(-c4ccc(F)cc4)c3C=C1CCC[C@@H]2CO [Example 4a, ((5aR,6S)-1-(4-Fluorophenyl)-5a-methyl-5,5a,6,7,8,9-hexahydroimidazo[1,5-b]isoquinolin-6-yl)methanol] | 111
31 | C[C@]12Cn3cnc(-c4ccc(F)cc4)c3C=C1CCC[C@@H]2CNc1nccs1 [Example 4b, N-(((5aR,6S)-1-(4-fluorophenyl)-5a-methyl-5,5a,6,7,8,9-hexahydroimidazo[1,5-b]isoquinolin-6-yl)methyl)thiazol-2-amine] | 215
32 | C[C@]12Cn3cnc(-c4ccc(F)cc4)c3C=C1CCC[C@@H]2CC(=O)Nc1nncs1 [Example 6, 2-((5aR,6R)-1-(4-fluorophenyl)-5a-methyl-5,5a,6,7,8,9-hexahydroimidazo[1,5-b]isoquinolin-6-yl)-N-(1,3,4-thiadiazol-2-yl)acetamide] | 7.13
33 | CC(C)(C)NC(=O)NCC[C@H]1CCCC2=Cc3c(-c4ccc(F)cc4)ncn3C[C@@]21C [Example 7, 1-tert-Butyl-3-(2-((5aR,6R)-1-(4-fluorophenyl)-5a-methyl-5,5a,6,7,8,9-hexahydroimidazo[1,5-b]isoquinolin-6-yl)ethyl)urea] | 95.7
34 | C[C@]12Cn3cnc(-c4ccc(F)cc4)c3C=C1CCC[C@@H]2[C@](C)(O)c1cccc(S(C)(=O)=O)c1 [Example 8a, (S)-1-((5aR,6S)-1-(4-fluorophenyl)-5a-methyl-5,5a,6,7,8,9-hexahydroimidazo[1,5-b]isoquinolin-6-yl)-1-(3-(methylsulfonyl)phenyl)ethanol] | 2.12
35 | C[C@]12Cn3cnc(-c4ccc(F)cc4)c3C=C1CCC[C@@H]2[C@](C)(O)c1ncccn1 [Example 11, (S)-1-((5aR,6S)-1-(4-Fluorophenyl)-5a-methyl-5,5a,6,7,8,9-hexahydroimidazo[1,5-b]isoquinolin-6-yl)-1-(pyrimidin-2-yl)ethanol] | 68.2
36 | CC(=O)[C@H]1CCCC2=Cc3c(-c4ccccc4)ncn3C[C@@]21C [Example 26] | > 1150
37 | C[C@]12Cn3cnc(-c4ccc(F)cc4)c3C=C1CCC[C@@H]2C(=O)c1ccc(F)cc1 [Example 47] | 878
38 | C[C@]12Cn3cnc(-c4ccc(F)cc4)c3C=C1CCC[C@@H]2[C@@H](O)c1ccc(F)cc1 [Example 49] | 35.3
39 | C[C@]12Cn3cnc(-c4ccc(F)cc4)c3C=C1CCC[C@@H]2[C@H](O)c1ccc(F)cc1 [Example 50] | 29.7
40 | C=CC[C@H](O)[C@H]1CCCC2=Cc3c(-c4ccc(F)cc4)ncn3C[C@@]21C [Example 51] | 7.38
41 | C=CC[C@@H](O)[C@H]1CCCC2=Cc3c(-c4ccc(F)cc4)ncn3C[C@@]21C [Example 52] | 8.67
42 | CC(C)C[C@@](C)(O)[C@H]1CCCC2=Cc3c(-c4ccc(F)cc4)ncn3C[C@@]21C [Example 59] | 9.67
43 | C[C@]12Cn3cnc(-c4ccc(F)cc4)c3C=C1CCC[C@@H]2[C@](C)(O)C#Cc1ccccc1 [Example 70] | 59.9
44 | C[C@]12Cn3cnc(-c4ccc(F)cc4)c3C=C1CCC[C@@H]2C(=O)c1ccccc1CN1CCCC1 [Example 72] | > 1150
45 | Cc1cccc(C)c1C(=O)[C@H]1CCCC2=Cc3c(-c4ccc(F)cc4)ncn3C[C@@]21C [Example 76] | 207
46 | C[C@]12Cn3cnc(-c4ccc(F)cc4)c3C=C1CCC[C@@H]2[C@](C)(O)c1ccc(C#N)cc1 [Example 79] | 3.42
47 | C[C@]12Cn3cnc(-c4ccc(F)cc4)c3C=C1CCC[C@@H]2[C@]1(C)OC(=N)c2ccccc21 [Example 84] | 201
48 | C[C@]12Cn3cnc(-c4ccc(F)cc4)c3C=C1CCC[C@@H]2[C@]1(C)OC(=O)c2ccccc21 [Example 85] | 177
49 | C[C@]12Cn3cnc(-c4ccc(F)cc4)c3C=C1CCC[C@@H]2CC(=O)Nc1nccs1 [Example 86] | 67.1
50 | CC(C)(C)OC(=O)NCC[C@H]1CCCC2=Cc3c(-c4ccc(F)cc4)ncn3C[C@@]21C [Example 88] | 11.4
51 | C[C@]12Cn3cnc(-c4ccc(F)cc4)c3C=C1CCC[C@@H]2[C@@H](O)C(F)(F)F [Example 90] | 103
